Assay results from patent publication USRE50663E1, “Heterocycle derivatives as pesticides” (Bayer Aktiengesellschaft, priority 2017, dated 2025).

Assays:
Assay type in all cases: in vivo
[1] = system: larvae of the mustard beetle (Phaedon cochleariae); experiment: Phaedon cochleariae spray test; settings: foliar, 168 h, 100 g/ha, after 7 days, Chinese cabbage leaf discs, read-out: efficacy
Protocol: (§1) Solvent: 78.0 parts by weight of acetone • • 1.5 parts by weight of dimethylformamide
(§2) Emulsifier: alkylaryl polyglycol ether
(§3) To produce a suitable active compound formulation, 1 part by weight of active compound is dissolved with the specified parts by weight of solvent and made up to the desired concentration with water containing an emulsifier concentration of 1000 ppm. To produce further test concentrations, the formulation is diluted with emulsifier-containing water.
Discs of Chinese cabbage leaves (Brassica pekinensis) are sprayed with an active compound formulation of the desired concentration and, after drying, populated with larvae of the mustard beetle (Phaedon cochleariae).
After 7 days, the efficacy in % is determined. 100% means that all the beetle larvae have been killed; 0% means that no beetle larvae have been killed.

[2] = system: greenhouse red spider mite (Tetranychus urticae); experiment: Tetranychus urticae spray test, OP-resistant; settings: 20 g/ha, after 6 days, bean leaf discs
Protocol: as §1, §2, §3
Discs of bean leaves (Phaseolus vulgaris) infested with all stages of the greenhouse red spider mite (Tetranychus urticae) are sprayed with an active compound formulation of the desired concentration.
After 6 days, the efficacy in % is determined. 100% means that all the spider mites have been killed; 0% means that no spider mites have been killed.

[3] = system: green peach aphid (Myzus persicae); experiment: Myzus persicae spray test; settings: foliar, 120 h, 100 g/ha, after 5 days, Chinese cabbage leaf discs, read-out: efficacy
Protocol: Solvent: 78 parts by weight of acetone • • 1.5 parts by weight of dimethylformamide
as §2, §3
Discs of Chinese cabbage leaves (Brassica pekinensis) infested by all stages of the green peach aphid (Myzus persicae) are sprayed with an active compound formulation of the desired concentration.
After 5 days, the efficacy in % is determined. 100% means that all the aphids have been killed; 0% means that no aphids have been killed.

[4] = system: adult cat fleas (Ctenocephalides felis); experiment: Ctenocephalides felis oral test; settings: 48 h, 100 ppm in citrated cattle blood, after 2 days, read-out: efficacy (kill)
Protocol: Solvent: dimethyl sulfoxide
To produce a suitable active compound formulation, 10 mg of active compound are mixed with 0.5 ml of dimethyl sulfoxide. Dilution with citrated cattle blood gives the desired concentration.
About 20 unfed adult cat fleas (Ctenocephalides felis) are placed into a chamber which is closed at the top and bottom with gauze. A metal cylinder whose bottom end is closed with parafilm is placed onto the chamber. The cylinder contains the blood/active compound formulation, which can be imbibed by the fleas through the parafilm membrane.
After 2 days, the kill in % is determined. 100% means that all of the fleas have been killed; 0% means that none of the fleas have been killed.

[5] = system: caterpillars of the fall armyworm (Spodoptera frugiperda); experiment: Spodoptera frugiperda spray test; settings: foliar, 168 h, 100 g/ha, after 7 days, maize leaf discs, read-out: efficacy
Protocol: as §1, §2, §3
Leaf discs of maize (Zea mays) are sprayed with an active compound formulation of the desired concentration and, after drying, populated with caterpillars of the fall armyworm (Spodoptera frugiperda).
After 7 days, the efficacy in % is determined. 100% means that all the caterpillars have been killed; 0% means that no caterpillar has been killed.

[6] = system: caterpillars of the armyworm (Spodoptera frugiperda); experiment: Comparative Spodoptera frugiperda spray test (SPODFR); settings: 168 h, 7 dat, read-out: % efficacy
Protocol: (§4) Solvent: 14 parts by weight of dimethylformamide
as §2
as §3, with “water. If the addition of ammonium salts or/and penetrants is required, these are each added in a concentration of 1000 ppm to the formulation solution.” for “water.”
Cotton leaves (Gossypium hirsutum) are sprayed with an active ingredient formulation of the desired concentration and populated with caterpillars of the armyworm (Spodoptera frugiperda).
(§5) After the desired time, the kill in % is determined. 100% means that all caterpillars have been killed; 0% means that none of the caterpillars have been killed.

[7] = system: green peach aphid (Myzus persicae); experiment: Comparative Myzus persicae spray test (MYZUPE); settings: 144 h, 6 dat, read-out: % efficacy
Protocol: as §4, §2
as §3, with “water. If the addition of ammonium salts or/and penetrants is required, these are each added in a concentration of 1000 ppm to the formulation solution.” for “water.”
Bell pepper plants (Capsicum annuum) severely infested with the green peach aphid (Myzus persicae) are treated by spraying with the active ingredient formulation in the desired concentration.
After the desired time, the kill in % is determined. 100% means that all the animals have been killed; 0% means that no animals have been killed.

[8] = system: caterpillars of the cotton bollworm (Heliothis armigera); experiment: Comparative Heliothis armigera spray test (HELIAR); settings: Helicoverpa armigera, 168 h, 7 dat, read-out: % efficacy
Protocol: as §4, §2
as §3, with “water. If the addition of ammonium salts or/and penetrants is required, these are each added in a concentration of 1000 ppm to the formulation solution.” for “water.”
Cotton plants (Gossypium hirsutum) are sprayed with an active compound formulation of the desired concentration and, after drying, populated with caterpillars of the cotton bollworm (Heliothis armigera).
as §5

[9] = system: green peach aphid (Myzus persicae); experiment: Comparative Myzus persicae drench test (MYZUPE D); settings: soil, 240 h, 10 dat, read-out: % efficacy
Protocol: (§6) Solvent: 7 parts by weight of dimethylformamide
(§7) Emulsifier: 2 parts by weight of alkylaryl polyglycol ether
(§8) To produce a suitable active ingredient formulation, 1 part by weight of active ingredient is mixed with the specified amounts of solvent and emulsifier, and the concentrate is diluted with water to the desired concentration, it being necessary to take into account the volume of soil which is drenched. It should be ensured that a concentration of 40 ppm of emulsifier in the soil is not exceeded. To produce further test concentrations, water is used for dilution.
Savoy cabbage (Brassica oleracea) in pots with soil and infested by all stages of the green peach aphid (Myzus persicae) is watered with an active ingredient formulation of the desired concentration.
After the desired period of time, the efficacy in % is determined. 100% means that all the aphids have been killed; 0% means that no aphids have been killed.

[10] = system: larvae of the diamondback moth (Plutella xylostella); experiment: Comparative Plutella xylostella spray test (PLUTMA); settings: 168 h, 7 dat, read-out: % efficacy
Protocol: as §4, §2
as §3, with “water. If the addition of ammonium salts or/and penetrants is required, these are each added in a concentration of 1000 ppm to the formulation solution.” for “water.”
Cabbage leaves (Brassica oleracea) are sprayed with an active ingredient formulation of the desired concentration and infected with larvae of the diamondback moth (Plutella xylostella).
as §5

[11] = system: L2 larvae of the banded cucumber beetle (Diabrotica balteata); experiment: Comparative Diabrotica balteata drench test (DIABBA D); settings: soil, 192 h, 8 dat, read-out: % efficacy
Protocol: as §6, §7, §8
In each case 5 maize corns (Zea mays) are sown into pots filled with earth, and the next day the pots are watered with the active compound preparation of the desired concentration. After one day, about 25 L2 larvae of the banded cucumber beetle (Diabrotica balteata) are added.
After 8 days, the efficacy in % is determined. 100% means that all 5 plants have germinated and grown; 0% means that none of the plants has emerged.

[12] = system: larvae of the mustard beetle (Phaedon cochleariae); experiment: Comparative Phaedon cochleariae spray test (PHAECO); settings: 168 h, 7 dat, read-out: % efficacy
Protocol: as §4, §2
as §3, with “water. If the addition of ammonium salts or/and penetrants is required, these are each added in a concentration of 1000 ppm to the formulation solution.” for “water.”
Cabbage leaves (Brassica oleracea) are sprayed with an active ingredient formulation of the desired concentration and populated with larvae of the mustard beetle (Phaedon cochleariae).
After the desired time, the kill in % is determined. 100% means that all the beetle larvae have been killed; 0% means that no beetle larvae have been killed.

[13] = system: caterpillars of the armyworm (Spodoptera frugiperda); experiment: Comparative Spodoptera frugiperda drench test (SPODFR D); settings: soil, 336 h, 14 dat, read-out: % efficacy
Protocol: as §6, §7, §8
Maize plants (Zea mays) in pots of soil are watered with an active ingredient formulation of the desired concentration and infected with caterpillars of the armyworm (Spodoptera frugiperda).
as §5

CCS(=O)(=O)c1c(-c2nc3cc(C(F)(F)F)cnc3n2C)nc2cc(C(F)C3CC3)ccn12 (stereo not drawn) [Example I-22]
pest or weed control at 100 g/ha [1]: 100% | efficacy [2]: 90% | pest or weed control at 100 g/ha [3]: 90% | pest or weed control at 100 ppm [4]: 100% | pest or weed control at 100 g/ha [5]: 100%

CCS(=O)(=O)c1c(-c2nc3cc(C(F)(F)F)cnc3n2C)nc2cc(C3CC3)ccn12 [known from WO 2016/162318, reference compound]
Emax at 0.16 ppm [6]: 65% | Emax at 0.8 ppm [7]: 0% | Emax at 0.16 ppm [8]: 10% | Emax at 0.8 ppm [9]: 0% | Emax at 0.16 ppm [10]: 45% | Emax at 0.8 ppm ([11]; 0.8 ppm): 30% | Emax at 4 ppm ([11]; 4 ppm): 70% | Emax at 0.8 ppm ([12]; 0.8 ppm): 0% | Emax at 4 ppm ([12]; 4 ppm): 60% | Emax at 0.16 ppm [13]: 40%
